{"source": "patent US20030118510A1", "about": "(priority 2001, published 2003)", "key": {"[1]": {"assay": "Intratracheal administration of 750-2 PEG insulin in rats (Example 11, P-2002-003)", "protocol": "(§1) The rats were lightly anesthetized using inhaled 3.0-5.0% Isoflurane (Abbott Laboratories) mixed with oxygen for approximately 5 minutes in a plexiglass anesthesia chamber. Administration was accomplished by insertion of a gavage needle (Popper & Sons Inc.; 18×3″ W2-¼ mm ball, New Hyde Park, N.Y. 11040) fitted into a 1 mL syringe into the mouth of the rat down the trachea to just above the main carina. When inserting the gavage needle into the trachea, proper insertion was detected by feeling for the roughness of the cartilage rings under the skin of the throat using the ball of the gavage needle. Doses were administered into the lungs utilizing this method, and followed by removal of the gavage needle.\n(§2) Fourteen (N=7/Group) fasted male rats (Hilltop Lab Animals, Scottsdale, Pa. (300-350 g)) with indwelling jugular vein catheters (JVC) were used for this study.\n(§3) The in-vivo rat study was conducted essentially as described in Example 8 above.\nAbsolute bioavailability was calculated as follows: [formula]"}, "[2]": {"tested_on": "blood glucose", "assay": "Blood glucose following intratracheal administration of 2K PEG insulin in rats (Example 12, P-2002-010)", "type": "in vivo, male rats", "conditions": "i.t.", "from_the_text": "Fourteen (N=7/Group) fasted male rats (Hilltop Lab Animals, Scottsdale, Pa. (300-350 g)) with indwelling jugular vein catheters (JVC) were used for this study. […] Animal 2-3 was dropped from the study due to a clogged catheter."}, "[3]": {"tested_on": "blood glucose", "conditions": "i.t.", "protocol": "as §1, §2"}, "[4]": {"tested_on": "blood glucose", "conditions": "rats, 20, 30, 40 μg/animal"}, "[5]": {"tested_on": "blood glucose", "assay": "Blood glucose following intratracheal administration of 750-1 PEG insulin in rats (Example 9, P-2001-025)", "type": "in vivo, male rats", "conditions": "i.t.", "protocol": "as §1, §2, §3"}, "[6]": {"tested_on": "blood glucose", "assay": "Blood glucose following intratracheal administration of 750-1 PEG insulin in rats (Example 10, P-2002-001)", "type": "in vivo, male rats", "conditions": "i.t.", "protocol": "as §1, §2\nThe in-vivo intratracheal rat study was conducted essentially as described in Example 8 above."}}, "data": [{"substance": "750-2 PEG insulin: 750 PEG insulin composition prepared at molar ratio of PEG reagent (mPEG-SPA-750) to insulin of 3:1", "values": [{"measurement": "TMax", "setting": "[1]; rat, in vivo", "value": 1.22, "unit": "h"}]}, {"substance": "2K PEG insulin: insulin pegylated in non-site specific (random) fashion with linear mPEG-succinimidyl propionate ~2,000 Daltons; mixture of mono and di-pegylated product", "values": [{"measurement": "glucose levels at time points past about 6 hours compared with non-pegylated insulin", "setting": "[2]; 600 μg, 900 μg and 1200 μg per animal", "value": "suppressed significantly below those of non-pegylated insulin"}, {"measurement": "dose response of decrease in blood glucose concentration", "setting": "[2]; 300-1200 μg/animal", "value": "Good dose response"}, {"measurement": "time point at which maximum glucose suppression was achieved", "setting": "[2]; Example 12", "value": "about 3 hours"}]}, {"substance": "N^αB1-Methoxypoly(ethylene glycol)5K- propionamido-insulin [5K PEG insulin]", "values": [{"measurement": "lowering of blood glucose compared with non-pegylated insulin", "setting": "[3]; 150 μg/animal vs non-pegylated insulin 40 μg/animal", "value": "less effective than non-pegylated insulin"}, {"measurement": "lowering of blood glucose when administered to the lung", "setting": "[3]; 150 μg/animal, male rats", "value": "effective in lowering blood glucose"}, {"measurement": "bioactivity (ability to lower blood glucose)", "setting": "[4]; i.v.", "value": "possesses bioactivity"}, {"measurement": "glucose levels following i.v. administration", "setting": "[4]", "value": "dose dependent decrease"}]}, {"substance": "750-1 PEG insulin: 750 PEG insulin composition prepared at molar ratio of PEG reagent (mPEG-SPA-750) to insulin of 7:1", "values": [{"measurement": "glucose suppression over the 12 hour period compared with unmodified insulin", "setting": "[5]; Example 9", "value": "significantly increased"}, {"measurement": "onset of action (suppression of glucose)", "setting": "[5]; Example 9", "value": "rapid onset of action comparable to native insulin"}, {"measurement": "time at which glucose levels had not yet returned (duration of glucose suppression)", "setting": "[5]; Example 9", "value": "> 12", "unit": "h"}, {"measurement": "time to reach maximum glucose lowering", "setting": "[5]; Example 9, 100 μg dose", "value": "≥ 6", "unit": "h"}, {"measurement": "time to reach maximum glucose lowering", "setting": "[5]; Example 9, 300 μg dose", "value": "≥ 8", "unit": "h"}, {"measurement": "time to reach maximum glucose lowering", "setting": "[5]; Example 9, 500 μg dose", "value": "at least 4 hours"}, {"measurement": "duration of glucose suppression", "setting": "[6]; Example 10, 80 and 160 μg/animal", "value": "> 25", "unit": "h"}, {"measurement": "glucose levels at 8 hours, times lower than for unmodified insulin", "setting": "[6]; Example 10, 8 hours", "value": "about 1.5 times"}, {"measurement": "mean serum insulin and mean blood glucose concentrations following intratracheal instillation (FIG. 10, FIG. 11)", "setting": "[1]; i.t., 80 μg/animal", "value": "Results similar to those in Examples 9 and 10"}]}]}
